Experimental data as given in US4396606A, “Novel polypeptide analgesics” (Addiction Research Foundation, priority 1979, dated 1983).
Where two headings read alike, the source gives them in different places.

How the values were obtained:
rat brain membranes = test: radioreceptor binding assay; conditions: for IC50: 1 nM radioligand, 1 h at 23°
Procedure: The radioreceptor binding assay used well washed rat brain membranes that had been incubated for 30 min at 37° with 100 mM NaCl to remove bound endogenous ligands. Blume (1978) Proc. Natl. Acad. Sci. 75, 1713. Several radioligands (1 nM final concentration) and competing ligands were tested. Competing ligands were added to the membrane suspension in Tris buffer, pH 7.4 at 23°, and radioligand was added immediately thereafter. Assay volume was 500 μl. After incubation (1 h, 23°), the mixture was chilled, filtered, washed twice, and counted.
Washed membranes from rat brain homogenate, 1 h incubation at 23°. Data are IC50 values (nM) from complete log dose-inhibition curves for inhibition of stereospecific binding of the various radioligands. […] DADLE=D-ala^2 -D-leu^5 -enkephalin. DHM=dihydromorphine.

mouse vas deferens = mouse vas deferens bioassay; format: cell-based; conditions: for IC50: inhibition of electrically stimulated twitch, geometric mean; for Potency in mouse vas deferens / potency in guinea pig ileum: ratio of potencies in the two bioassays
Procedure: (§1) The guinea pig ileum myenteric plexus-longitudinal muscle preparation was used as described in Kosterlitz et al, supra, and Schulz & Goldstein, supra. […] Geometric means of IC50 values from several muscle strips were obtained, with standard errors in log units. Kd values for naloxone as an antagonist were determined from the ratio of IC50 values in the presence and absence of a fixed naloxone concentration. The mouse vas deferens was used as described in Hughes at al (1975) Brit. J. Pharmacol. 53, 371. IC50 and naloxone Kd values were determined as above.
(§2) Effects of dynorphin-(1-13) in two bioassays. […] Naloxone Kd is the apparent dissociation constant of the antagonist, computed from the equation Kd =[…]/(D.R.-1), derived from the mass law for competitive antagonism, where C=concentration of naloxone (here 100 nM), and D.R.=dose ratio of agonist, the ratio of IC50 doses in the presence and absence of the antagonist. The same procedures were followed with the mouse vas deferens. IC50 values are geometric means, with standard errors in log units, number of tissue preparations in parentheses. Kd determinations were based on four tissue preparations. RX-1 is des-arg^6 -dynorphin-(1-13); RS-2 has gly^6 insertion in dynorphin-(1-13).

[1] = system: guinea pig ileum myenteric plexus-longitudinal muscle preparation; test: guinea pig ileum myenteric plexus-longitudinal muscle preparation bioassay; format: cell-based; conditions: for IC50: inhibition of electrically stimulated twitch, geometric mean of several muscle strips
Description: Starting material was 100 g MSH concentrate, the second oxycellulose adsorbate in commercial ACTH production from procine pituitary glands (Schally et al (1962) Endocrinology 71, 164). The initial steps, with 25 g batches, have been described in Lowney et al (1979) Life Sci. 24, 2377: extraction and back-extraction with butanol; separation from β-endorphin on Bio-Gel P6; preparative reversed-phase HPLC on C18 columns, first with a methanol gradient in trifluoroacetic acid (TFA), then with an acetonitrile gradient in Tris buffer at neutrality, followed by elution of the active material with TFA. Every step was monitored by assay on the guinea pig ileum myenteric plexus-longitudinal muscle preparation. Kosterlitz & Waterfled (1975) Ann. Rev. Pharmacol. 15, 29; Schulz & Goldstein (1973) Brit. J. Pharmacol. 48, 655.
as §1, §2

[2] = system: antiserum to dynorphin (1-13)-thyroglobulin conjugate; test: dynorphin radioimmunoassay; format: binding, rabbit
Description: The subject dynorphin was used for the development of immunoassays, illustrated particularly by a radioimmunoassay. For carrying out the immunoassay, it is necessary to prepare antigens which specifically recognize the oligopeptide, in this case dynorphin. To prepare antigen conjugates, thyroglobulin was conjugated to synthetic dynorphin (1-13). The procedure for preparing the antigen conjugate, injecting the antigen conjugate into animals and isolating the antisera is described as follows.
Synthetic dynorphin (1-13) (3.25 μmoles, 5.2 mg) was dissolved in 2 ml of 100 mM sodium phosphate buffer at neutrality. To the mixture was added with agitation 10^5 cpm of ^125 I-dynorphin to serve as a tracer. After addition of the tracer, 26 mg of thyroglobulin (bovine type 1, Sigma) was added and the mixture cooled in an ice-bath after the thyroglobulin dissolved. A 1:100 dilution with cold water of glutaraldehyde (Sigma, Grade 1, 25% aqueous solution) (1 ml) was added dropwise with stirring in a cold room at 4° and agitation continued for 30 min., followed by warming to room temperature and continuing the stirring for 3 hrs.
Based on the coupling efficiency calculated from the cpm of the dialysis bag residue, after lyophilizing, sufficient of the conjugate was employed to provide 50-100 μg of coupled oligopeptide per rabbit. For six rabbits, the dry material was added to 4 ml of 0.9% NaCl, followed by 4 ml of Freund's incomplete adjuvant. The mixture was uniformly dispersed by drawing up and down in a syringe and needle for 30 mins., the mixture divided into six aliquots and approximately 10 to 12 interdermal injections made in a shaved New Zealand White X San Juan hybrid rabbit. Booster injections were made at two week intervals, with a bleeding taken 10 days after the fourth booster shot, 50 ml of blood being removed from the ear artery, allowed to clot, the serum removed and stored frozen.
In small borosilicate tubes was added 25 μl dynorphin (equimolar to Na ^125 I), 50 μl Na ^125 I, and 20 μl chloramine-T and the mixture allowed to react at room temperature for 30-45 mins. The reaction was terminated by adding 100 μl of sodium metabisulfite. After washing a Sephadex G-15 column (1.2×35 cm) with 0.25 M acetic acid and 0.1% bovine serum albumin, the reaction mixture was added and eluted with the same solvent, collecting 1 ml fractions at a rate of 0.3 ml/min, collecting a total of 50 fractions.
Antiserum: A 1:10 dilution of the antiserum in 50 mM sodium phosphate buffer, pH7.4, containing 50 mM NaCl was diluted 1:10^4 with buffer B;
Dynorphin (1-13) standard: Standards were prepared by taking 10 μl of a 10 mM stock solution in water and adding 990 μl of methanolic HCl to make a […] dynorphin solution followed by 1:100 dilutions to provide the desired series.
^125 I-dynorphin (1-13) trace: The trace stored in 0.25 M acetic acid containing 0.1% BSA was diluted to about 5,000 cpm/100 μl with buffer B.
The procedure for the assay was as follows: All solutions were in ice at the outset and all operations were carried out in ice. In a […] borosilicate glass tube was added in the following order 100 μl of dynorphin (1-13) standard or test sample in methanolic HCl; 100 μl of the antiserum dilution; and 100 μl of the trace, followed by incubation at 0°-4° for 24 hrs. Incubation was terminated with a charcoal mixture prepared by mixing 3 g Norit A, 0.3 g dextran, 15 ml horse serum and the mixture brought to 100 ml with buffer A and mixed for 10 min in a cold room before use. To each incubation tube was added 1 ml of a charcoal mixture, the mixture vortexed followed by incubation for 5 min in a cold room and then centifuged at 5000×g for 15 min in a Beckman Model J6B (4200 rpm). To a 13×100 mm borosilicate glass tube was transferred 850 μl of the supernatant and the tube counted for 5 min in a gamma counter.

[3] = treatment with cyanogen bromide
[4] = ^a = unusually shallow slope, read-out: IC50 for inhibition of stereospecific binding, radioligand 3H-DHM
[5] = ^a = unusually shallow slope, read-out: IC50 for inhibition of stereospecific binding, radioligand 3H-DADLE

Oc1ccc2c3c1O[C@H]1[C@@H](O)C=C[C@H]4[C@@H](C2)NCC[C@@]341 [Normorphine] showed an IC50 (rat brain membranes; [4]) of 5 nM, an IC50 (rat brain membranes; with Na, read-out: IC50 for inhibition of stereospecific binding, radioligand 3H-naloxone +Na) of 260 nM and an IC50 (rat brain membranes; without Na, read-out: IC50 for inhibition of stereospecific binding, radioligand 3H-naloxone -Na) of 21 nM. For the same compound, the IC50 (mouse vas deferens; Mus musculus) was 230 nM and the IC50 ([1]; Cavia porcellus) was 120 nM.

In the case of C=CCN1CC[C@@]23CCCC[C@@H]2[C@@H]1Cc1ccc(O)cc13 [dextrallorphan], the “effect on radioligand binding” value (rat brain membranes; 1 μM competing ligand) is reported as “without effect”.

For C=CCN1CC[C@]23CCCC[C@H]2[C@H]1Cc1ccc(O)cc13 [levallorphan], the “displacement of radioligand (stereospecific saturable binding)” value (rat brain membranes; 1 μM final concentration) was “about 70 % of total binding”.

Compound “H-tyr-gly-gly-phe-leu-arg-arg-ile-arg-pro-lys-leu-lys-OH [Dynorphin-(1-13)]” has an IC50 (rat brain membranes; [5]) of 43 nM, an IC50 (rat brain membranes; [4]) of 16 nM and an IC50 (mouse vas deferens) of 7.5 nM. For the same compound, the “Potency in mouse vas deferens / potency in guinea pig ileum” value (mouse vas deferens) was 0.08, the “potency relative to leu-enkephalin” value ([1]; guinea pig ileum test) was “about 1000 x” and the “potency relative to normorphine” value ([1]; guinea pig ileum test) was “about 350 x”. For the same compound, the “potency relative to β-endorphin” value ([1]; guinea pig ileum test) was “about 30 x”, the IC50 [1] was 0.63 nM and the “persistence in the guinea pig ileum test” value ([1]; unlike β-endorphin) was “long persistence”. It also gave a B/Bo ([2]; 1 × 10^-13 moles dynorphin per assay tube) of 15, a B/Bo ([2]; 1 × 10^-14 moles dynorphin per assay tube) of 45 and a B/Bo ([2]; 1 × 10^-15 moles dynorphin per assay tube) of 85. It also gave a B/Bo ([2]; 1 × 10^-16 moles dynorphin per assay tube) of 100, a B/Bo ([2]; 5 × 10^-13 moles dynorphin per assay tube) of 5 and a B/Bo ([2]; 5 × 10^-14 moles dynorphin per assay tube) of 30. The B/Bo ([2]; 5 × 10^-15 moles dynorphin per assay tube) was 75, the B/Bo ([2]; 5 × 10^-16 moles dynorphin per assay tube) was 100 and the “resistance to treatment with cyanogen bromide” value [3] was “relatively resistant”.

For βc -endorphin [reference compound], the IC50 (rat brain membranes; [5]) was 2.1 nM, the IC50 (rat brain membranes; [4]) was 1.8 nM and the “Potency in mouse vas deferens / potency in guinea pig ileum” value (mouse vas deferens) was 1.5. For the same compound, the IC50 [1] was 34 nM.
